The values below come from patent US20240199546A1, “INHIBITORS OF SOLUTE CARRIER FAMILY 6A MEMBER 19 (SLC6A19) AND METHODS OF USE THEREOF” (Maze Therapeutics, Inc., priority 2022, published 2024).

SMILES strings stand for the structures.

For this assay, the target named is T1, human SLC6A19 and TMEM27 (Homo sapiens, UniProt Q695T7).
T1 construct: expressed in transfected cells
T1 sequence (Q695T7 1-634): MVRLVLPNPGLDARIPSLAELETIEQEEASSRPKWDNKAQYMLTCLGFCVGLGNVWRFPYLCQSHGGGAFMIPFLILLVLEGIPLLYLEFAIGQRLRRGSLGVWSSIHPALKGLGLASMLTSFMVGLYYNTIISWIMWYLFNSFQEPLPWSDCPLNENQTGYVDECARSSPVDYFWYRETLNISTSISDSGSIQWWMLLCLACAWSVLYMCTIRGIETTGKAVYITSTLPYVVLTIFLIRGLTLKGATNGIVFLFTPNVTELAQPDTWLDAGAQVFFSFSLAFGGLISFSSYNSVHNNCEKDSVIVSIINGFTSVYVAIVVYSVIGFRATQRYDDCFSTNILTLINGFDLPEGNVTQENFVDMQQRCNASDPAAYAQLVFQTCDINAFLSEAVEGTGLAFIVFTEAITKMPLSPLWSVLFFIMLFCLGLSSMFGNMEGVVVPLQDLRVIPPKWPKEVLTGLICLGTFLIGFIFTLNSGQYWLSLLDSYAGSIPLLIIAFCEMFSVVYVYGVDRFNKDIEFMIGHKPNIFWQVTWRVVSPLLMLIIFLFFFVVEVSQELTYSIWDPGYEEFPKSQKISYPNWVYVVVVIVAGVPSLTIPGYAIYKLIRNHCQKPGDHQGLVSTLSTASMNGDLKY
T1 sequence (Q9HBJ8 15-222 partner): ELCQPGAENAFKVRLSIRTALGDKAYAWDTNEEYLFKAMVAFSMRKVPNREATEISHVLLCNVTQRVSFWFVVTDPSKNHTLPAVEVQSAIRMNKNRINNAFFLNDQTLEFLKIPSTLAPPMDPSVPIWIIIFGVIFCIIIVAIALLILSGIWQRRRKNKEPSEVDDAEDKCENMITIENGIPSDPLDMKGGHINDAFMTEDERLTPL
In words: 13C6,15N-isoleucine uptake in CHO cells with doxycycline-inducible expression of human SLC6A19 and TMEM27, RapidFire mass spectrometry (Example B-2). The settings on record: read-out: SLC6A19_RapidFire Uptake Assay IC50. Type of assay: cell-based. On the procedure: Assay ready vials of CHO cells with doxycycline inducible expression of human SLC6A19 and TMEM27 were thawed, plated in T175 flasks containing DMEM/F12 media, 10% FBS, 1% Penicillin-Streptomycin, 1× UltraGlutamate, 1 mM Sodium Pyruvate, Sodium Bicarbonate (7.5 mL of 7.5% solution in 500 mL media final), 5 μg/mL Blasticidin, 150 μg/mL Hygromycin B Gold, and 500 μg/mL G418, and incubated (humidified, 37° C. with 5% CO2) for 48 hours. Media was then removed, flasks were washed with 20 mL of DPBS, and 5 mL of TrypLE™ Express was added to each flask to initiate cell dissociation. After 5 minutes, 10 mL of cell culture media was added to each flask and mixed. The cell suspension was collected and centrifuged for 5 minutes at 200×g. The supernatant was removed, and the pellet was resuspended in 10 mL of cell culture media. Resuspended cells were counted using a Vi-Cell. 30 μL/well (20,000 cells/well) of cell suspension was added to Poly-D-Lysine 384-well black/clear plates. Plates were incubated (humidified, 37° C. with 5% CO2) for 24 hours. To induce expression of human SLC6A19 and TMEM27, 10 μL of assay culture media containing 4 μg/mL doxycycline was added to each well. Assay plates were then incubated (humidified, 37° C. with 5% CO2) overnight. After incubation, the media was removed, and wells were washed 3 times with 40 μL of warmed DPBS. Next, 10 μL of warmed assay buffer (137 mM NaCl, 5 mM KCl, 1 mM CaCl2), 1 mM MgCl2, 10 mM HEPES, 10 mM glucose, pH 7.2) was added to each well. 10 μL/well of test compound or positive control compound to define 0% activity (i.e., 100% inhibition), was then added into each well. All compounds were plated in a duplicate 10-point dilution series that consisted of 2-fold dilutions. The plates were incubated (humidified, 37° C. with 5% C2) with compound for 20 minutes. Afterwards, 20 μL/well of 2 mM 13C6,15N-1-isoleucine was added to each well and plates were incubated again (humidified, 37° C. with 5% C02) for another 20 minutes. Assay buffer was then removed, and plates were washed. 70 μL/well of stop solution (75% acetonitrile, 25% HPLC grade water, 250 nM 1-leucine-1-13C (RapidFire standard)) was added to each well. The plates were sealed and then placed in a −20° C. freezer for 20 minutes. The plates were thawed at room temperature for 20 minutes and then centrifuge for 20 minutes at 3000 rpm. Using an ABSciex API4000 mass spectrometer, processed samples were loaded onto the graphitic carbon SPE-column. The time for aspiration, load/wash, elution and re-equilibration time was 600, 1500, 3000 and 500 milliseconds, respectively. Peak areas were calculated using RapidFire Integrator software.
Broadly, the IC50 is the midpoint of a concentration-inhibition curve. Regarding `CNC(=O)COc1ccc2cc(CNC(=O)C3(C)CC3)[nH]c2c1` [Compound 162, 1-methyl-N-((6-(2-(methylamino)-2-oxoethoxy)-1H-indol-2-yl)methyl)cyclopropane-1-carboxamide], the IC50 was determined as 16.3 µM.

`O=C(NCc1cc2cc(Cl)c(OCc3cncs3)cc2[nH]1)N1CCCC1` [Compound 119, N-((5-chloro-6-(thiazol-5-ylmethoxy)-1H-indol-2-yl)methyl) pyrrolidine-1-carboxamide]: the IC50 was found to be 0.485 µM. `CC1(C(=O)NCc2cc3ccc(OCc4cncnc4)cc3[nH]2)CC1` [Compound 52, 1-methyl-N-((6-(pyrimidin-5-ylmethoxy)-1H-indol-2-yl)methyl)cyclopropane-1-carboxamide]: the 50% inhibitory concentration (IC50) is 2.11 µM. For `CC1(C(=O)NCc2cc3ccc(OCc4cnco4)cc3[nH]2)CC1` [Compound 163, 1-methyl-N-((6-(oxazol-5-ylmethoxy)-1H-indol-2-yl)methyl)cyclopropane-1-carboxamide], the IC50 was 0.92 µM. As to `CC1(C(=O)NCc2cc3ccc(OCc4ccncn4)cc3[nH]2)CC1` [Compound 53, 1-methyl-N-((6-(pyrimidin-4-ylmethoxy)-1H-indol-2-yl)methyl)cyclopropane-1-carboxamide], the half-maximal inhibitory concentration (IC50) amounted to 4.82 µM.

In the case of `O=C(NCc1cc2ccc(OCc3cncs3)cc2[nH]1)N1CCCC1` [Compound 106, N-((6-(thiazol-5-ylmethoxy)-1H-indol-2-yl)methyl)pyrrolidine-1-carboxamide], the IC50 worked out at 0.613 µM. As for `Cc1ncc(COc2cc3[nH]c(CNC(=O)C4(C)CC4)cc3cc2Cl)s1` [Compound 176, N-((5-chloro-6-((2-methylthiazol-5-yl)methoxy)-1H-indol-2-yl)methyl)-1-methylcyclopropane-1-carboxamide], the figure is 0.528 µM; as for `CC1(C(=O)NCc2cc3ccc(OCc4ccncc4)cc3[nH]2)CC1` [Compound 56, 1-methyl-N-((6-(pyridin-4-ylmethoxy)-1H-indol-2-yl)methyl)cyclopropane-1-carboxamide], 1.95 µM; as for `Cc1c(CNC(=O)C2(C)CC2)[nH]c2cc(OCc3ccccc3)ccc12` [Compound 156, N-((6-(benzyloxy)-3-methyl-1H-indol-2-yl)methyl)-1-methylcyclopropane-1-carboxamide], 0.198 µM. Consider `CNC(=O)NCc1cc2cc(Cl)c(OCc3ccon3)cc2[nH]1` [Compound 110, 1-((5-chloro-6-(isoxazol-3-ylmethoxy)-1H-indol-2-yl)methyl)-3-methylurea], for which the half-maximal inhibitory concentration (IC50) is 0.464 µM.

Turning to `CC1(C(=O)NCc2cc3ccc(NCc4ccccc4)cc3[nH]2)CC1` [Compound 3, N-((6-(benzylamino)-1H-indol-2-yl)methyl)-1-methylcyclopropanecarboxamide], the half-maximal inhibitory concentration (IC50) turned out to be 0.504 µM. As to `Cc1cc(COc2ccc3cc(CNC(=O)C4(C)CC4)[nH]c3c2)on1` [Compound 181, 1-methyl-N-((6-((3-methylisoxazol-5-yl)methoxy)-1H-indol-2-yl)methyl)cyclopropane-1-carboxamide], the IC50 turned out to be 0.183 µM. With `CNC(=O)NCc1cc2cc(Cl)c(OCc3cocn3)cc2[nH]1` [Compound 111, 1-((5-chloro-6-(oxazol-4-ylmethoxy)-1H-indol-2-yl)methyl)-3-methylurea], the IC50 was 0.586 µM. As for `CC1(C(=O)NCc2cc3cc(F)c(OCc4cocn4)cc3[nH]2)CC1` [Compound 7, N-((5-fluoro-6-(oxazol-4-ylmethoxy)-1H-indol-2-yl)methyl)-1-methylcyclopropane-1-carboxamide], the figure is 0.225 µM; as for `CC1(C(=O)NCc2cc3cc(Cl)c(OCc4nccs4)cc3[nH]2)CC1` [Compound 40, N-((5-chloro-6-(thiazol-2-ylmethoxy)-1H-indol-2-yl)methyl)-1-methylcyclopropane-1-carboxamide], 0.064 µM. Consider `CC1(C(=O)NCc2cc3ccc(OCc4ccsn4)cc3[nH]2)CC1` [Compound 94, N-((6-(isothiazol-3-ylmethoxy)-1H-indol-2-yl)methyl)-1-methylcyclopropanecarboxamide], for which the IC50 was 0.0434 µM.

`CC1(C(=O)NCc2cc3ccc([C@@H]4C[C@H]4c4ccccc4)cc3[nH]2)CC1` (racemic) [Compound 154, trans-1-methyl-N-((6-(2-phenylcyclopropyl)-1H-indol-2-yl)methyl)cyclopropane-1-carboxamide]: the IC50 was found to be 1.36 µM.

Turning to `CC1(C(=O)NCc2cc3ccc(OCc4ccno4)cc3[nH]2)CC1` [Compound 62, N-((6-(isoxazol-5-ylmethoxy)-1H-indol-2-yl)methyl)-1-methylcyclopropanecarboxamide], the IC50 worked out at 0.493 µM.

For `CC1(C(=O)NCc2[nH]c3cc(OCc4ccon4)ccc3c2Cl)CC1` [Compound 157, N-((3-chloro-6-(isoxazol-3-ylmethoxy)-1H-indol-2-yl)methyl)-1-methylcyclopropane-1-carboxamide], the IC50 was 0.043 µM. As for `CC1(C(=O)NCc2cc3cc(F)c(OCc4cncs4)cc3[nH]2)CC1` [Compound 9, N-((5-fluoro-6-(thiazol-5-ylmethoxy)-1H-indol-2-yl)methyl)-1-methylcyclopropane-1-carboxamide], the figure is 0.271 µM; as for `Cc1noc(COc2ccc3cc(CNC(=O)C4(C)CC4)[nH]c3c2)n1` [Compound 169, 1-methyl-N-((6-((3-methyl-1,2,4-oxadiazol-5-yl)methoxy)-1H-indol-2-yl)methyl)cyclopropane-1-carboxamide], 0.083 µM; as for `CC1(C(=O)NCc2cc3ccc(OCc4ccon4)cc3[nH]2)CC1` [Compound 20, N-((6-(isoxazol-3-ylmethoxy)-1H-indol-2-yl)methyl)-1-methylcyclopropane-1-carboxamide], 0.168 µM.

For `CNC(=O)NCc1cc2cc(Cl)c(OCc3cncs3)cc2[nH]1` [Compound 109, 1-((5-chloro-6-(thiazol-5-ylmethoxy)-1H-indol-2-yl)methyl)-3-methylurea], the concentration for half-maximal inhibition (IC50) came out at 0.515 µM. `Cc1ncc(COc2ccc3cc(CNC(=O)C4(C)CC4)[nH]c3c2)s1` [Compound 178, 1-methyl-N-((6-((2-methylthiazol-5-yl)methoxy)-1H-indol-2-yl)methyl)cyclopropane-1-carboxamide]: the half-inhibitory concentration (IC50) was determined as 0.511 µM. As for `Cc1cc2cc(CNC(=O)C3(C)CC3)[nH]c2cc1OCc1ccon1` [Compound 10, N-((6-(isoxazol-3-ylmethoxy)-5-methyl-1H-indol-2-yl)methyl)-1-methylcyclopropane-1-carboxamide], the figure is 0.13 µM; as for `CCc1cc(COc2cc3[nH]c(CNC(=O)C4(C)CC4)cc3cc2Cl)no1` [Compound 95], 0.267 µM.

As for `CC1(C(=O)NCc2cc3ccc(OCc4cscn4)cc3[nH]2)CC1` [Compound 164, 1-methyl-N-((6-(thiazol-4-ylmethoxy)-1H-indol-2-yl)methyl)cyclopropane-1-carboxamide], the half-maximal inhibitory concentration (IC50) came to 0.098 µM.
